According to US20130338130A1 (priority 2009, published 2013):
Values joined by “and” are separate entries in the source; they are usually repeats but may differ in a detail not shown here. Identical values can stand only once. Like-named read-outs stand apart in the source and are kept apart here.

What was measured:
[1] = system: ATCC strain 43300 Staphylococcus aureus; conditions: 24 hours; for survival (Log cfu/ml): 30 μg/ml oxacillin + MSM (% in label); for average log reduction in cfu/ml: MSM (% in label) with antibiotic (12, 30, 60 μg/ml oxacillin or methicillin)
Description: All concentrations were plated out to the 10^−7 dilutions to ascertain cfu/ml.
ATCC strain 43300 Staphylococcus aureus was streaked out for isolations and 25 clones were picked and diluted to a McFarland standard of one. The estimated value was then taken to inoculate tubes containing growth media and 12, 30 or 60 μg/ml methicillin or oxacillin with around 10^−7 cfu/tube.
Material was calculated on a 10 ml volume. Sterile oxacillin or methicillin was added to each experimental condition to a final concentration of 12, 30 or 60 μg/ml antibiotic.
All tubes were then inoculated with a dilution of the selected ATCC strain 43300 Staphylococcus aureus clone giving a final level of colony forming units of 9.4×10^7/ml (log=7.97). The tubes were incubated at 25° C. and mixed periodically. […] Plating was done at 24 hours. Each condition was plated by diluting 1 ml of growth material into 9 ml of MLB diluent broth. This mixture was serial diluted down to 10^−7, and 1 ml placed in a sterile petri dish at each dilution point. 20 mls of TSA was added to each dilution, swirled and allowed to solidify. All dilutions were placed in a 35° C. incubator for 24 hours. Bacterial colonies on each plate were counted and colony counts changed into log format. A positive and negative control was ascertained.

[2] = system: ATCC strain 43300 Staphylococcus aureus; conditions: for survival (cfu/ml): triplicate platings
Description: Additional antibiotic was added every 24 hours. The growth periods tested were 24 (FIG. 5), 48, 72, 96 and 120 hours.
USP<51> Antimicrobial Effectiveness protocol was used as the template experimental paradigm. […] All concentrations were plated out to the 10^−7 dilutions to ascertain cfu/ml. […] Additional antibiotic was added at the initial concentration every 24 hours.
ATCC strain 43300 Staphylococcus aureus was streaked out for isolations. An isolated colony was chosen, streaked again and incubated. Isolate was chosen and then diluted to a McFarland standard of one. The estimated value was then taken to inoculate tubes containing growth media and 12, 30 or 60 μg/ml methicillin with approximately 10^5 cfu/ml. These tubes were incubated and plated for counting cfu.
Material was calculated on a 10 ml volume. Sterile methicillin was added to each experimental condition to a final concentration of 12, 30 or 60 μg/ml antibiotic. Lactose Broth positive controls both with and without the 12 μg/ml, 30 μg/ml, 60 μg/ml antibiotic were inoculated with MRSA. […] Tubes were set up in singlet, but plated in triplicate, as described below.
All tubes were then inoculated with a dilution of the selected ATCC strain 43300 Staphylococcus aureus clone giving a final level of colony forming units of 1.49×10^5/ml (log=5.17). The tubes were incubated at 25° C. and mixed periodically. Antibiotic was re-inoculated every 24 hours at the initial concentration to maintain pressure on the organism. Plating was done at 24, 48, 72, and 120 hours. Each condition was plated by diluting 1 ml of growth material into 9 ml of MLB diluent broth. […] This mixture was serial diluted down to 10^−7 with 1 ml placed in triplicate in a sterile petri dish at each dilution point. 20 mls of TSA was added to each dilution, swirled and allowed to solidify. All dilutions were placed in a 35° C. incubator for 24 to 72 hours. Bacterial colonies on each plate were counted and the average taken then changed into log format. […] Graphs were recorded as log of 5.2 for TNTC to show comparison among the other data points.
The tubes were spun down at 5000 rpm for 10 minutes. The supernatant was then decanted into 90 mls of Mueller-Hinton broth with 6 μg/ml methicillin. This is for enrichment and the recovery of any MRSA cells that may be present wether healthy or stressed. The pellet had 10 mls Mueller-Hinton broth with 6 μg/ml methicillin added to it to recover any cells that may be present. Both vessels were incubated at 35° C. for 48 hours and plated each 24 hours. Each vessel was plated at 10 dilutions to obtain a 1 cfu detection limit. Since all vessels were at a 1/10 dilution in the enrichment solution plating each vessel in this manner gave us a detection limit of 1 cfu/ml. […] This time point for graphing purposes will be reported as 0 logs.

CS(C)(=O)=O [MSM, Methylsulfonylmethane]
survival (Log cfu/ml) ([1]; listed as 15% MSM): 4.74 Log cfu/ml
survival (Log cfu/ml) ([1]; listed as 16% MSM): 4.59 Log cfu/ml
average log reduction in cfu/ml ([1]; listed as 5% MSM): 2.2 log
average log reduction in cfu/ml ([1]; listed as 16% MSM): 3.3 log
colony numbers ([1]; MSM without antibiotic control condition): greater colony numbers than what was initially inoculated
survival (cfu/ml) ([2]; 12 μg/ml methicillin (re-added every 24 hours) + MSM (% in label), 24 hours, inoculum 1.49×10^5/ml, listed as 5% MSM): 7.8 × 10^2 cfu/ml and 8.0 × 10^2 cfu/ml and 8.2 × 10^2 cfu/ml
survival (cfu/ml) ([2]; 12 μg/ml methicillin (re-added every 24 hours) + MSM (% in label), 24 hours, inoculum 1.49×10^5/ml, listed as 6% MSM): 4.0 × 10^2 cfu/ml and 4.4 × 10^2 cfu/ml and 4.5 × 10^2 cfu/ml
survival (cfu/ml) ([2]; 12 μg/ml methicillin (re-added every 24 hours) + MSM (% in label), 24 hours, inoculum 1.49×10^5/ml, listed as 7% MSM): 4.4 × 10^2 cfu/ml and 5.0 × 10^2 cfu/ml
survival (cfu/ml) ([2]; 12 μg/ml methicillin (re-added every 24 hours) + MSM (% in label), 24 hours, inoculum 1.49×10^5/ml, listed as 8% MSM): 9.6 × 10^2 cfu/ml and 9.5 × 10^2 cfu/ml and 9.3 × 10^2 cfu/ml
survival (cfu/ml) ([2]; 12 μg/ml methicillin (re-added every 24 hours) + MSM (% in label), 24 hours, inoculum 1.49×10^5/ml, listed as 9% MSM): 9.0 × 10^2 cfu/ml and 9.4 × 10^2 cfu/ml and 9.2 × 10^2 cfu/ml
survival (cfu/ml) ([2]; 12 μg/ml methicillin (re-added every 24 hours) + MSM (% in label), 24 hours, inoculum 1.49×10^5/ml, listed as 10% MSM): 1.4 × 10^3 cfu/ml
survival (cfu/ml) ([2]; 12 μg/ml methicillin (re-added every 24 hours) + MSM (% in label), 24 hours, inoculum 1.49×10^5/ml, listed as 11% MSM): 2.2 × 10^3 cfu/ml and 2.3 × 10^3 cfu/ml
survival (cfu/ml) ([2]; 12 μg/ml methicillin (re-added every 24 hours) + MSM (% in label), 24 hours, inoculum 1.49×10^5/ml, listed as 12% MSM): 2.9 × 10^3 cfu/ml and 3.0 × 10^3 cfu/ml and 2.8 × 10^3 cfu/ml
survival (cfu/ml) ([2]; 12 μg/ml methicillin (re-added every 24 hours) + MSM (% in label), 24 hours, inoculum 1.49×10^5/ml, listed as 13% MSM): 3.3 × 10^3 cfu/ml and 3.5 × 10^3 cfu/ml and 3.4 × 10^3 cfu/ml
survival (cfu/ml) ([2]; 12 μg/ml methicillin (re-added every 24 hours) + MSM (% in label), 24 hours, inoculum 1.49×10^5/ml, listed as 14% MSM): 8.8 × 10^3 cfu/ml and 8.5 × 10^3 cfu/ml and 8.2 × 10^3 cfu/ml
survival (cfu/ml) ([2]; 12 μg/ml methicillin (re-added every 24 hours) + MSM (% in label), 24 hours, inoculum 1.49×10^5/ml, listed as 15% MSM): 6.4 × 10^3 cfu/ml and 6.6 × 10^3 cfu/ml and 6.5 × 10^3 cfu/ml
survival (cfu/ml) ([2]; 12 μg/ml methicillin (re-added every 24 hours) + MSM (% in label), 24 hours, inoculum 1.49×10^5/ml, listed as 16% MSM): 1.01 × 10^3 cfu/ml and 1.03 × 10^3 cfu/ml and 1.04 × 10^3 cfu/ml
log reduction ([2]; 12 μg/ml methicillin, 24 hours): 2.2 log
log reduction in colony count ([2]; 12 μg/ml methicillin, 48 hours): 4.1 log
recovery after enrichment in Mueller-Hinton broth ([2]; 12 μg/ml methicillin, 72 hours, detection limit 1 cfu/ml): true total kill
colony count ([2]; 12 μg/ml methicillin, 96 hours): TNTC
recovery after enrichment in Mueller-Hinton broth ([2]; 12 μg/ml methicillin, 96 hours, detection limit 1 cfu/ml): true total kill
colony count ([2]; 12 μg/ml methicillin, 120 hours): TNTC
average log reduction in colony count ([2]; 12 μg/ml methicillin, all MSM concentrations, 24 hours): 1.5 logs
survival (cfu/ml) ([2]; 30 μg/ml methicillin + MSM (% in label), 24 hours, listed as 5% MSM): 3.8 × 10^2 cfu/ml and 4.1 × 10^2 cfu/ml and 4.0 × 10^2 cfu/ml
survival (cfu/ml) ([2]; 30 μg/ml methicillin + MSM (% in label), 24 hours, listed as 6% MSM): 2.2 × 10^2 cfu/ml and 2.5 × 10^2 cfu/ml
survival (cfu/ml) ([2]; 30 μg/ml methicillin + MSM (% in label), 24 hours, listed as 7% MSM): 3.4 × 10^2 cfu/ml and 3.5 × 10^2 cfu/ml and 3.3 × 10^2 cfu/ml
survival (cfu/ml) ([2]; 30 μg/ml methicillin + MSM (% in label), 24 hours, listed as 8% MSM): 9.4 × 10^2 cfu/ml and 9.6 × 10^2 cfu/ml
survival (cfu/ml) ([2]; 30 μg/ml methicillin + MSM (% in label), 24 hours, listed as 9% MSM): 1.1 × 10^3 cfu/ml and 1.3 × 10^3 cfu/ml and 1.2 × 10^3 cfu/ml
survival (cfu/ml) ([2]; 30 μg/ml methicillin + MSM (% in label), 24 hours, listed as 10% MSM): 1.2 × 10^3 cfu/ml and 1.3 × 10^3 cfu/ml and 1.1 × 10^3 cfu/ml
survival (cfu/ml) ([2]; 30 μg/ml methicillin + MSM (% in label), 24 hours, listed as 11% MSM): 3.3 × 10^3 cfu/ml and 2.8 × 10^3 cfu/ml and 3.1 × 10^3 cfu/ml
survival (cfu/ml) ([2]; 30 μg/ml methicillin + MSM (% in label), 24 hours, listed as 12% MSM): 3.3 × 10^3 cfu/ml
survival (cfu/ml) ([2]; 30 μg/ml methicillin + MSM (% in label), 24 hours, listed as 13% MSM): 6.5 × 10^3 cfu/ml and 6.4 × 10^3 cfu/ml
survival (cfu/ml) ([2]; 30 μg/ml methicillin + MSM (% in label), 24 hours, listed as 14% MSM): 6.3 × 10^3 cfu/ml and 6.7 × 10^3 cfu/ml and 6.9 × 10^3 cfu/ml
survival (cfu/ml) ([2]; 30 μg/ml methicillin + MSM (% in label), 24 hours, listed as 15% MSM): 7.8 × 10^3 cfu/ml and 7.6 × 10^3 cfu/ml and 8.0 × 10^3 cfu/ml
survival (cfu/ml) ([2]; 30 μg/ml methicillin + MSM (% in label), 24 hours, listed as 16% MSM): 9.6 × 10^3 cfu/ml and 9.8 × 10^3 cfu/ml and 9.7 × 10^3 cfu/ml
log reduction in colony count ([2]; 30 μg/ml methicillin, 24 hours): 2.8 log
recovery after enrichment in Mueller-Hinton broth ([2]; 30 μg/ml methicillin, 120 hours, detection limit 1 cfu): true total kill
average log reduction ([2]; 30 μg/ml methicillin, lower end of MSM concentrations, 24 hours): 3 log
survival (cfu/ml) ([2]; 60 μg/ml methicillin + MSM (% in label), 24 hours, listed as 5% MSM): 8.3 × 10^2 cfu/ml and 8.1 × 10^2 cfu/ml
survival (cfu/ml) ([2]; 60 μg/ml methicillin + MSM (% in label), 24 hours, listed as 6% MSM): 4.2 × 10^2 cfu/ml and 4.8 × 10^2 cfu/ml
survival (cfu/ml) ([2]; 60 μg/ml methicillin + MSM (% in label), 24 hours, listed as 7% MSM): 6.1 × 10^2 cfu/ml and 6.3 × 10^2 cfu/ml and 6.2 × 10^2 cfu/ml
survival (cfu/ml) ([2]; 60 μg/ml methicillin + MSM (% in label), 24 hours, listed as 8% MSM): 9.4 × 10^2 cfu/ml and 9.8 × 10^2 cfu/ml and 9.7 × 10^2 cfu/ml
survival (cfu/ml) ([2]; 60 μg/ml methicillin + MSM (% in label), 24 hours, listed as 9% MSM): 2.0 × 10^3 cfu/ml and 1.6 × 10^3 cfu/ml and 1.8 × 10^3 cfu/ml
survival (cfu/ml) ([2]; 60 μg/ml methicillin + MSM (% in label), 24 hours, listed as 10% MSM): 2.2 × 10^3 cfu/ml and 2.1 × 10^3 cfu/ml and 2.0 × 10^3 cfu/ml
survival (cfu/ml) ([2]; 60 μg/ml methicillin + MSM (% in label), 24 hours, listed as 11% MSM): 3.5 × 10^3 cfu/ml and 3.8 × 10^3 cfu/ml and 3.9 × 10^3 cfu/ml
survival (cfu/ml) ([2]; 60 μg/ml methicillin + MSM (% in label), 24 hours, listed as 12% MSM): 4.5 × 10^3 cfu/ml and 4.1 × 10^3 cfu/ml and 4.7 × 10^3 cfu/ml
survival (cfu/ml) ([2]; 60 μg/ml methicillin + MSM (% in label), 24 hours, listed as 13% MSM): 7.0 × 10^3 cfu/ml and 6.8 × 10^3 cfu/ml and 6.5 × 10^3 cfu/ml
survival (cfu/ml) ([2]; 60 μg/ml methicillin + MSM (% in label), 24 hours, listed as 14% MSM): 8.3 × 10^3 cfu/ml and 8.8 × 10^3 cfu/ml and 8.5 × 10^3 cfu/ml
survival (cfu/ml) ([2]; 60 μg/ml methicillin + MSM (% in label), 24 hours, listed as 15% MSM): 8.3 × 10^3 cfu/ml and 8.5 × 10^3 cfu/ml and 8.4 × 10^3 cfu/ml
survival (cfu/ml) ([2]; 60 μg/ml methicillin + MSM (% in label), 24 hours, listed as 16% MSM): 8.4 × 10^3 cfu/ml and 8.5 × 10^3 cfu/ml
log reduction in colony count ([2]; 60 μg/ml methicillin, 48 hours): 4.1 log
recovery after enrichment in Mueller-Hinton broth ([2]; 60 μg/ml methicillin, 72 hours, detection limit 1 cfu/ml): true total kill
colony count ([2]; 60 μg/ml methicillin, 96 hours): TNTC
recovery after enrichment in Mueller-Hinton broth ([2]; 60 μg/ml methicillin, 120 hours, detection limit 1 cfu): true total kill
growth ([2]; positive 5%, 10%, and 16% MSM controls, no antibiotic, 24 hours): signs of turbid growth, was TNTC for all dilutions plated
